Read-outs that look alike come from different tables or passages of the source.
Columns and labels:
[1] = Determination of logD7.4 (miniaturized shake flask, octanol–PBS); format: physicochemical
Description: (§1) Detailed descriptions of the materials and methods are provided in the supporting information. Multifunctional rhodamine–HaloTag ligands (13HTL–16HTL and 18HTL–20HTL) were synthesized using palladium-catalyzed cross-coupling reactions to install 3-carboxyazetidine moieties onto rhodamine scaffolds, followed by amide bond formation with biotin–PEG2–NH2, (S)-JQ1–PEG2–NH2, or (R)-JQ1–PEG2–NH2. Spectroscopic properties (λabs, λem, ε, and Φf) were determined in 10 mM HEPES, pH 7.3. The lactone–zwitterion equilibrium constants (KL–Z) were measured in 1:1 (v/v) dioxane–water mixtures. Octanol–water distribution coefficients (logD7.4) were determined by miniaturized shake-flask partitioning experiments using PBS (pH 7.4) and 1-octanol. Cell culture experiments employed HEK293T, U2OS, and Neuro2a cells transfected with HaloTag fusion constructs and labeled with ligands (100 nM to 1 μM, 0.5 to 2 h at 37 °C), followed by fluorescence microscopy using confocal or lattice light-sheet microscopy. Affinity purification studies utilized streptavidin magnetic beads to capture biotin-labeled HaloTag conjugates, with analysis by SDS-PAGE and in-gel fluorescence detection. […]
Reported values are averages of at least two measurements.
Determination of logD7.4. The log of distribution coefficients at pH 7.4 was determined in octanol–phosphate-buffered saline (PBS) using a miniaturized shake flask setup described previously.6, 7 Briefly, 150 mL each of octanol and PBS pH 7.4 were stirred vigorously for 12–16 h. The layers were allowed to stand for at least 24 h for phase separation. The separated layers were collected and served as PBS saturated with octanol (PBS*) and octanol saturated with PBS (octanol*). Stock solutions (1 mM or 5 mM) of ligands were prepared in DMSO and diluted in PBS* to obtain 1 μM or 10 μM (3–5 mL) of the standard (std). This standard was used to prepare appropriate dilutions using octanol*, in triplicate, in 2-mL glass vials. The leftover standard was used to determine the standard concentration (Cstd). The vials were vortexed for 1 min and shaken horizontally at 700 rpm for 2 h. The vials were then shaken upright at 150 rpm for 2 h to allow the phases to separate. The octanol* layer was pipetted out, and the PBS* layer was used for further analyses. The concentrations of ligands in the standard and PBS* (CPBS*) were determined via fluorescence measurements of 200 μL of PBS* or std in 96-well plates on the Cytation 5 Multimode Plate Reader (BioTek). For Si-rhodamine containing ligands, 2–20 μL of […]
trifluoroacetic acid was added to each well of the 96-well plate prior to the fluorescence measurements. Reported values are averages of at least two measurements. The logD7.4 was obtained as described previously using equation 2: logD = log *’(" × r − 1. +)*+∗ / (2) […]
where Cstd is the standard concentration in PBS, CPBS* is the concentration in PBS after partitioning, r is the dilution factor of the standard solution, VPBS* is the volume of PBS used in the partitioning, and Voctanol* is the volume of octanol used in the partitioning.
Plasmid construction for mitochondria imaging and affinity purification. HaloTag, amplified from the pHTC HaloTag CMV-neo Vector (Promega; G7711) and monomeric-superfolder green fluorescent protein (msGFP; lab stock), was fused to the mitochondrial targeting signal from OMP25,8 interspacing flexible GS(GSS)4 linkers between each domain by PCR Splicing by Overlap Extension (SOE). This construct was subcloned into hSynapsin promoter bearing a copy of FUGW.9 FUGW was a gift from David Baltimore (Addgene plasmid # 14883; RRID:
Addgene_14883).10 This construct was designated as pF(UG) hSyn HaloTag-TEV-4×GS-msGFP- […]
HEK293T cell culture. HEK293T cells (ATCC) were passaged before 80% confluency by trypsinization (Corning; 25-053-CI) and trituration. The cell suspension was then plated on glass coverslips (Warner instruments; 64-0734, CS-18R17) coated with poly-D-lysine (Thermofisher; […]

[2] = Spectroscopy of HaloTag ligands and HaloTag conjugates; format: physicochemical; details: 10 mM HEPES, pH 7.3
Description: as §1
HaloTag protein purification. The bacterial expression vector pRSET-A (Invitrogen) was used to recombinantly express HaloTag (HT7; Promega).1 The soluble 6×His-Tagged HaloTag protein was affinity purified by immobilized metal affinity chromatography (IMAC) on a 5 -mL Fast Flow HiTrap Sepharose 6 column (Cytiva) with a 0–200 mM imidazole elution gradient using an Avant Protein Purification System (ÄKTA). A280 peak fractions were pooled, concentrated by a spin concentrator, and dialyzed 3× into tris-buffered saline (TBS). The amino acid sequence of HaloTag (HT7) expressed from pRSET-A is noted below; the annotated DNA and amino acid sequences […]
Spectroscopy of HaloTag ligands and HaloTag conjugates. Compounds 13HTL–16HTL, 18HTL, and 19HTL were prepared as stock solutions in DMSO and diluted such that the final DMSO […]
All measurements were taken at ambient temperature (22
± 2 °C). Absorption spectra were recorded on a Cary Model 100 spectrometer (Agilent) using 1-cm path length 1.0-mL quartz microcuvettes from Starna Cells. Fluorescence spectra were recorded on a Cary Eclipse fluorometer (Varian) using 1-cm path length 3.5-mL quartz cuvettes (Starna Cells). As before,2-4 HaloTag protein was used as a 100 μM solution in 1× TBS. HaloTag ligands 13HTL–16HTL, 18HTL, and 19HTL (5 μM) were dissolved in 10 mM HEPES, pH 7.3, containing 0.1 mg/mL CHAPS. An aliquot of HaloTag protein (1.5 equiv) was added, and the resulting mixture was incubated until a consistent absorbance signal was observed (60–120 min).
To measure the fold-increase of absorbance upon HaloTag binding, a “no HaloTag” control experiment was performed where an equivalent volume of TBS blank was added in place of the protein. Reported values for extinction coefficient (ε) are averages of at least two measurements. […]
Quantum yield determination. All reported absolute fluorescence quantum yield values (Φf) were measured in our laboratory under identical conditions using a Quantaurus-QY spectrometer (model C11374, Hamamatsu). This instrument uses an integrating sphere to determine photons absorbed and emitted by a sample. Measurements were performed using dilute samples (absorbance < 0.1), and self-absorption corrections were performed using the instrument software.5 Reported values are averages of at least two measurements.
Determination of logD7.4. The log of distribution coefficients at pH 7.4 was determined in octanol–phosphate-buffered saline (PBS) using a miniaturized shake flask setup described previously.6, 7 Briefly, 150 mL each of octanol and PBS pH 7.4 were stirred vigorously for 12–16 h. The layers were allowed to stand for at least 24 h for phase separation. The separated layers were collected and served as PBS saturated with octanol (PBS*) and octanol saturated with PBS […]

[3] = 1-octanol/PBS, octanol–PBS pH 7.4, miniaturized shake flask, read-out: logD7.4

## C[Si]1(C)c2cc(N3CC(F)C3)ccc2C2(OC(=O)c3ccc(C(=O)NCCOCCOCCCCCCCl)cc32)c2ccc(N3CC(F)C3)cc21 [6HTL, JF635–HaloTag ligand, reference compound]
[1]; pH 7.4
  logD: 3.82
[2]
  Φf: 0.60
  ε: ~ 400 M^−1cm^−1
  λabs: 640 nm
  λem: 658 nm

## O=C(CCCCC1SCC2NC(=O)NC21)NCCOCCOCCNC(=O)C1C[N+](=c2ccc3c(-c4cc(C(=O)NCCOCCOCCCCCCCl)ccc4C(=O)[O-])c4ccc(N5CCC5)cc4oc-3c2)C1 (stereo not shown) [13HTL, biotin–JF549–HaloTag ligand]
[1]; [3]
  logD: 0.07
[2]
  Φf: 0.90
  ε: 92,000 M^−1cm^−1
  λabs: 552 nm
  λem: 575 nm

## CC1(C)C2=CC(=[N+]3CC(C(=O)NCCOCCOCCNC(=O)CCCC[C@@H]4SC[C@@H]5NC(=O)N[C@@H]54)C3)C=CC2=C(c2cc(C(=O)NCCOCCOCCCCCCCl)ccc2C(=O)[O-])c2ccc(N3CCC3)cc21 (stereo partly shown) [14HTL, biotin–JF608–HaloTag ligand]
[1]; [3]
  logD: 2.63
[2]
  Φf: 0.65
  ε: 92,300 M^−1cm^−1
  λabs: 610 nm
  λem: 634 nm

## C[Si]1(C)C2=CC(=[N+]3CC(C(=O)NCCOCCOCCNC(=O)CCCC[C@@H]4SC[C@@H]5NC(=O)N[C@@H]54)C3)C=CC2=C(c2cc(C(=O)NCCOCCOCCCCCCCl)ccc2C(=O)[O-])c2ccc(N3CCC3)cc21 (stereo partly shown) [15HTL, biotin–JF646–HaloTag ligand]
[1]; pH 7.4
  logD: 3.06
[2]
  Φf: 0.56
  ε: 34,000 M^−1cm^−1
  λabs: 647 nm
  λem: 666 nm

## C[Si]1(C)C2=CC(=[N+]3CC(F)(C(=O)NCCOCCOCCNC(=O)CCCC[C@@H]4SC[C@@H]5NC(=O)N[C@@H]54)C3)C=CC2=C(c2cc(C(=O)NCCOCCOCCCCCCCl)ccc2C(=O)[O-])c2ccc(N3CC(F)C3)cc21 (stereo partly shown) [16HTL, biotin–JF635–HaloTag ligand]
[1]; pH 7.4
  logD: 3.6
[2]
  Φf: 0.60
  ε: 2,900 M^−1cm^−1
  λabs: 636 nm
  λem: 655 nm
